Like-named read-outs stand apart in the source and are kept apart here.

Assay type in all cases: cell-based
One assay deals with T1, IKZF3-GFP (Homo sapiens, UniProt Q96SW2+Q9UKT9).
T1 construct: expressed in transfected cells; host or cells: HEK293A (Invitrogen R70507), lentiviral transduction with pLenti6-IKZF3-GFP-Ires-RFP, blasticidin selection
Nature of the assay: IKZF3-GFP protein abundance flow cytometry assay in HEK293A cells. Particulars: Table 3, positive control compounds; % protein remaining at maximum degradation. The procedure: BTK-GFP and IKZF3-GFP protein abundance flow cytometry assay in HEK293A cells:
Degradation of BTK or IKZF3 was measured in HEK293A cells (Invitrogen R70507) expressing either BTK-GFP and RFP or IKZF3-GFP and RFP from a stably integrated bicistronic BTK-GFP-iresRFP or IKZF3-GFP-iresRFP construct, respectively. Reduction of the GFP signal measured by flow cytometry served as readout for BTK or IKZF3 degradation after degrader treatment.
By analogy the bicistronic pLenti6-IKZF3-GFP-iresRFP was engineered by gateway cloning of IKZF3 from a pENTR221-IKZF3(STOP-Leu) construct into the previously described pLenti6-DEST-GFP-Ires-RFP vector using the LR Clonase kit (Invitrogen 11791-019) according to the manufacturer's manual. All vectors described have been sequenced for verification.
ii) Engineering of Stably Expressing 293A BTK-GFP-Ires-RFP and IKZF3-GFP-Ires-RFP Sensor Cells
293A BTK-GFP-Ires-RFP and IKZF3-GFP-ires-RFP sensor cells were generated by lentiviral vector transduction using the pLenti6-BTK-GFP-Ires-RFP or pLenti6-IKZF3-GFP-Ires-RFP sensor construct described before. Lentiviral particles were produced in HEK293FT cells (Invitrogen R70007) by co-transfection of 500 ng pLenti6-BTK-GFP-ires-RFP or pLenti6-IKZF3-GFP-Ires-RFP, 500 ng delta8.71 and 200 ng pVSVG diluted in 100 μl OptiMEM serum free medium (Invitrogen #11058-021) that was mixed after 5 min preincubation with 3 μl of Lipofectamine2000 (Invitrogen #11668-019) in 97 μl OptiMEM serum free medium. The mix was incubated for another 20 min at RT and then added on 1 ml of a freshly prepared suspension of HEK293FT cells in a well of a 6-well plate (concentration 1.2×10^6 cells/ml). 1 day after transfection, the medium was replaced with 1.5 ml of complete growth medium (DMEM high Glucose+10% FCS+1% L-Glutamine+1% NEAA+1% NaPyr.). 48 h post transfection supernatant containing viral transducing particles was collected and frozen at −80° C.
Two days before transduction with viral particles 1×10^5 HEK293A cells (Invitrogen R70507) were seeded in 2 ml growth medium in a well of a 6-well plate. Infection was performed with 90 μl of collected supernatant containing viral transducing particles in 1 ml medium including 8 μg/ml polybrene. 24 h post infection, stably transfected cells were selected with blasticidin at a concentration of 8 μg/ml.
Iii) Quantitative BTK-GFP and IKZF3-GFP Abundance Measurements
Stable HEK293A-BTK-GFP-iresRFP cells were maintained in complete growth medium (DMEM high Glucose+10% FCS+1% L-Glutamine+1% NEAA+1% NaPyr.) with passaging performed twice per week. On Day 0, HEK293A-BTK-GFP-iresRFP or HEK293A-IKZF3-GFP-iresRFP and HEK293A-iresRFP cells were seeded at 10,000 cells/well in a 96-well microtiter plate in 260 μl complete medium. On Day 1, cells were treated in duplicate with 10-point 1:3 dilution series of compound using the HP D300 Digital Dispenser (Tecan). DMSO concentrations were normalized across the plate to 0.1%. On Day 2, after 24 h of incubation at 37° C., treatment media was discarded, cells rinsed with 100 μl/well PBS and then detached using 40 μl trypsin/well for 5 min. Trypsin was neutralized with 100 μl/well PBS+20% FCS). Flow cytometry was performed on the samples using the BD FACS CANTO II (Becton Dickinson). Cell identification was then performed using forward (FSC) vs. side scatter (SSC) plots. […] Median GFP values for 5,000 single cells are used to determine BTK levels. Median GFP values from HEK293A-iresRFP are used as a background signal and thus defining 0% BTK signal. Median GFP values from DMSO treated HEK293A-BTK-GFP-iresRFP or HEK293A-IKZF3-GFP-iresRFP are used to define 100% BTK signal for subsequent DC50 curves (concentration at 50% BTK degradation).

Another assay concerns OCI-LY3 cells. Nature of the assay: Resazurin cell viability (proliferation) assay in OCI-LY3 DLBCL cells. The settings on record: OCI-LY3 cells (BTK independent), 72 h, 50% growth inhibition vs vehicle, read-out: OCI-LY3 Prol GI50. In outline: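 Cells were seeded at 1×10^4 per well and dosed 3 h later: 8-point 1:4 dilutions from 10 μM (OCI-LY3), in triplicate, 72 h at 37 °C. Resazurin (13 μg/ml final) was added for the last 2 h and fluorescence read at 530/600 nm. GI50 is relative to DMSO vehicle, typically from ≥2 independent experiments.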

Another assay has as its system TMD8 cells. As to the kind of experiment: Resazurin cell viability (proliferation) assay in TMD8 DLBCL cells. The settings on record: TMD8 cells (BTK dependent), 72 h, 50% growth inhibition vs vehicle, read-out: TMD8 Prol GI50. The gist of the method:
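TMD8 cells were seeded at 1×10^4 per well and treated 3 h later with compound, in an 8-point 1:4 dilution series starting at 1 μM, or DMSO, for 72 h at 37° C. Resazurin was added at 13 μg/ml final for the last 2 h, and fluorescence was read at ex 530/em 600 nm. GI50 versus vehicle was derived by curve fitting from triplicates.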

The target in a further assay is T2, BTK-GFP (Homo sapiens, UniProt Q06187+Q96SW2).
T2 construct: expressed in transfected cells; host or cells: HEK293A (Invitrogen R70507), lentiviral transduction with pLenti6-BTK-GFP-Ires-RFP, blasticidin selection
Nature of the assay: BTK-GFP protein abundance flow cytometry assay in HEK293A cells. Particulars: HEK293A BTK-GFP-iresRFP cells, 24 h; for DC50: GFP signal by flow cytometry, concentration at which 50% maximal degradation was observed; for BTK deg Amax: % protein remaining at the concentration at which maximum degradation is seen. In outline: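 HEK293A cells stably expressing bicistronic BTK-GFP-IRES-RFP (C-terminal GFP tag) via lentiviral vector. Degradation read by flow cytometry as loss of GFP signal after degrader treatment. DC50 is concentration giving 50% maximal degradation; Amax is % protein remaining at maximal degradation.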

T2 sequence (Q06187 whole entry): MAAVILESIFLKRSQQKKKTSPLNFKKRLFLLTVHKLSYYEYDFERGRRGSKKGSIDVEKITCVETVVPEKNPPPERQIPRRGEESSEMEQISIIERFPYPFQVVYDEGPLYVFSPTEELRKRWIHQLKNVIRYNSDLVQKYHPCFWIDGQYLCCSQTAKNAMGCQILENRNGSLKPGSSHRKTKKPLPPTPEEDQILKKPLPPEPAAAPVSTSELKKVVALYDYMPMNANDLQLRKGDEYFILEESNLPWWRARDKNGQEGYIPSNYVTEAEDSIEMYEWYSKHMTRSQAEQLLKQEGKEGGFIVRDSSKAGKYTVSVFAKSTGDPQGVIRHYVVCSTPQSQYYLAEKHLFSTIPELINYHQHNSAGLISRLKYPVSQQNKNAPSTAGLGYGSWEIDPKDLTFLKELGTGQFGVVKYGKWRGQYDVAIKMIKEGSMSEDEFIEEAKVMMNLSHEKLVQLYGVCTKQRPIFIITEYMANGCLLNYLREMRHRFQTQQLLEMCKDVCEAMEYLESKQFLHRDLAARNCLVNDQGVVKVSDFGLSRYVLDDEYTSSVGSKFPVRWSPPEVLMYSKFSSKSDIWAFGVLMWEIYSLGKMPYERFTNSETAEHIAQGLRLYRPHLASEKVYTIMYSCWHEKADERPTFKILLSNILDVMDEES
T2 sequence (Q96SW2 whole entry): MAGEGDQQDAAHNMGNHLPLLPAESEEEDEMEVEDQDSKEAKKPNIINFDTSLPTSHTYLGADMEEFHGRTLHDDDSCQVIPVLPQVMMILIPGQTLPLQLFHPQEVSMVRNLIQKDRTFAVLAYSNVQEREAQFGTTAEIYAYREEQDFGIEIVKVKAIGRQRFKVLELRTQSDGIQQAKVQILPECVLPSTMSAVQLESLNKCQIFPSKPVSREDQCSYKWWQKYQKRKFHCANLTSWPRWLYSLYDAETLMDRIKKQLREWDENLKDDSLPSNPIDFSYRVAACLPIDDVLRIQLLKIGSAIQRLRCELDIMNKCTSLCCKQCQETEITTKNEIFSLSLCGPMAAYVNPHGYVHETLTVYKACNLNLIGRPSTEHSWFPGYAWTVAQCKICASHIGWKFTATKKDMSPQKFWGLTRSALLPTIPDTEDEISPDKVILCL
T2 sequence (Q16531 whole entry partner): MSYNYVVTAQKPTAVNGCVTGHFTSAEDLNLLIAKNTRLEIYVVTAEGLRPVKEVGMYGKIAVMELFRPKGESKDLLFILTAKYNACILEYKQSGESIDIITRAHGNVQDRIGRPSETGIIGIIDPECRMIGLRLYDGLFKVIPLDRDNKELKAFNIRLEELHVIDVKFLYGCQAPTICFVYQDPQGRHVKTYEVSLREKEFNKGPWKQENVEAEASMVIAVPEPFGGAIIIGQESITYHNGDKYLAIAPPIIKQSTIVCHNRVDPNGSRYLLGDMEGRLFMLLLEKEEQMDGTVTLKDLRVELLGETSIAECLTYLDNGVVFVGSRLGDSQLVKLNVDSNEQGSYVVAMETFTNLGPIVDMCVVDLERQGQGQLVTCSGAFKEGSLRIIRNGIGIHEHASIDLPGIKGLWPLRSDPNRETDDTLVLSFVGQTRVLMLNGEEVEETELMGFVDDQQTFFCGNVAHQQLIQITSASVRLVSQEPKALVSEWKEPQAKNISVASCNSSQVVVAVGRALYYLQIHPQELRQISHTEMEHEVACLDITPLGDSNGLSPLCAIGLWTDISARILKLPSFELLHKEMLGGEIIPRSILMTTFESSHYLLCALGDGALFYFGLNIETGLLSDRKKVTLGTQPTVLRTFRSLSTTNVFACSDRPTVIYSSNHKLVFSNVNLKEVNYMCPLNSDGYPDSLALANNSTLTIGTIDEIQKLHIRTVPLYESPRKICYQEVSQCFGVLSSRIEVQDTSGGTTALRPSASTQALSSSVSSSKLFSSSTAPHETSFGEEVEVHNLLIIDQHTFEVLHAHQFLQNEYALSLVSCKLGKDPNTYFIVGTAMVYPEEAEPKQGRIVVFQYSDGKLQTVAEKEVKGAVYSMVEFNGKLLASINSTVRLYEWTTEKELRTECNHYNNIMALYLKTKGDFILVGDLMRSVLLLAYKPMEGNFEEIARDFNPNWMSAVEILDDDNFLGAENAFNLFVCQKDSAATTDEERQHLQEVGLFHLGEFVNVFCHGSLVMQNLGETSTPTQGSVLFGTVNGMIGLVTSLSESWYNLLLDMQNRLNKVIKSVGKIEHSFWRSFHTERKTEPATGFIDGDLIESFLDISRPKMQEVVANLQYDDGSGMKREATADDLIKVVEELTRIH
T1 sequence (Q9UKT9 whole entry): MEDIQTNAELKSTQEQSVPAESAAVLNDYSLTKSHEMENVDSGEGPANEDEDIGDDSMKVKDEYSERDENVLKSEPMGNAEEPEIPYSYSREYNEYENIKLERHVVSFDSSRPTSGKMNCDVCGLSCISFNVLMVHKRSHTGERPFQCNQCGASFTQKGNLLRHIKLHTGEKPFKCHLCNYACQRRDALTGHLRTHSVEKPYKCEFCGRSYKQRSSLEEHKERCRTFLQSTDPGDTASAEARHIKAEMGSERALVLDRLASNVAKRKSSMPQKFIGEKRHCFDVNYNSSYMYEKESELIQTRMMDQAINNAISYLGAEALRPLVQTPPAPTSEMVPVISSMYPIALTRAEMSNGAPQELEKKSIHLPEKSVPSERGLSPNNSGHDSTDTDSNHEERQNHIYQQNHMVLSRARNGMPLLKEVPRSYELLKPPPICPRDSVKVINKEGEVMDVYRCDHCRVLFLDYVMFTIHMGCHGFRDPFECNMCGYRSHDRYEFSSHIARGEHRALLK
T1 sequence (Q96SW2 whole entry): as the sequence (Q96SW2 whole entry) above
T1 sequence (Q16531 whole entry partner): as the sequence (Q16531 whole entry partner) above

With `Nc1cccc2c1C(=O)N(C1CCC(=O)NC1=O)C2=O` (stereo not shown) [Pomalidomide, reference compound], at IKZF3-GFP, the “IKZF deg Amax” value amounted to 13.2%.

As for `COc1ccc(C(=O)N2CCC(O[C@H]3CC[C@H](Oc4ccc(-c5cc6c(-c7cc(F)cc(NC(=O)c8ccc(C(C)(C)O)cc8F)c7C)ncnc6[nH]5)cc4)CC3)CC2)cc1N1CCC(=O)NC1=O` [Compound 46, N-(3-(6-(4-(((1r,4r)-4-((1-(3-(2,4-dioxotetrahydropyrimidin-1(2H)-yl)-4-methoxybenzoyl)piperidin-4-yl)oxy)cyclohexyl)oxy)phenyl)-7H-pyrrolo[2,3-d]pyrimidin-4-yl)-5-fluoro-2-methylphenyl)-2-fluoro-4-(2-hydroxypropan-2-yl)benzamide], in the assay on OCI-LY3 cells, the concentration for 50% growth inhibition (GI50) is over 10 µM. Further, the GI50 in the assay on TMD8 cells worked out at 0.00359 µM. On BTK-GFP, half-maximal degradation (DC50) was put at 0.0017 µM and the “BTK deg Amax” value worked out at 3.6%.

As to `COc1ccc(C(=O)N2CCC3(CCN(Cc4ccc(-c5cc6c(-c7cc(F)cc(NC(=O)c8ccc(C(C)(C)O)cc8F)c7C)ncnc6[nH]5)cc4)C3)CC2)cc1N1CCC(=O)NC1=O` [Compound 49, N-(3-(6-(4-((8-(3-(2,4-dioxotetrahydropyrimidin-1(2H)-yl)-4-methoxybenzoyl)-2,8-diazaspiro[4.5]decan-2-yl)methyl)phenyl)-7H-pyrrolo[2,3-d]pyrimidin-4-yl)-5-fluoro-2-methylphenyl)-2-fluoro-4-(2-hydroxypropan-2-yl)benzamide], the 50% growth inhibitory concentration (GI50) in the assay with OCI-LY3 cells (Homo sapiens) turned out to be 4.84 µM. Also, the GI50 in the assay with TMD8 cells (Homo sapiens) stood at 0.00535 µM. For the same compound, on BTK-GFP, the half-maximal degradation concentration (DC50) was 0.0703 µM and the “BTK deg Amax” value is listed as 49.4%.

Regarding `COc1ccc(C(=O)N2CCN(CCNCCCOCc3ccc(-c4cc5c(-c6cc(F)cc(NC(=O)c7ccc(C(C)(C)O)cc7F)c6C)ncnc5[nH]4)cc3)CC2)cc1N1CCC(=O)NC1=O` [Compound 45, N-(3-(6-(4-((3-((2-(4-(3-(2,4-dioxotetrahydropyrimidin-1(2H)-yl)-4-methoxybenzoyl)piperazin-1-yl)ethyl)amino)propoxy)methyl)phenyl)-7H-pyrrolo[2,3-d]pyrimidin-4-yl)-5-fluoro-2-methylphenyl)-2-fluoro-4-(2-hydroxypropan-2-yl)benzamide], the results for the GI50 with OCI-LY3 cells (Homo sapiens) and in the assay on TMD8 cells (Homo sapiens) were over 10 µM and 0.0191 µM, respectively. Besides, at BTK-GFP, the 50% degradation concentration (DC50) came out at 0.284 µM. Further, on BTK-GFP, the “BTK deg Amax” value came out at 3.2%.
